This is an account of results in patent US10208030B2, “GPR119 agonist compounds” (Mankind Pharma Ltd., priority 2016, dated 2019).

For one assay, the target named is T1, hGPR119 (Homo sapiens, UniProt Q8TDV5).
T1 construct: expressed in transfected cells; host or cells: CHO cells (CHO-hGPR119)
T1 sequence (Q8TDV5 1-335): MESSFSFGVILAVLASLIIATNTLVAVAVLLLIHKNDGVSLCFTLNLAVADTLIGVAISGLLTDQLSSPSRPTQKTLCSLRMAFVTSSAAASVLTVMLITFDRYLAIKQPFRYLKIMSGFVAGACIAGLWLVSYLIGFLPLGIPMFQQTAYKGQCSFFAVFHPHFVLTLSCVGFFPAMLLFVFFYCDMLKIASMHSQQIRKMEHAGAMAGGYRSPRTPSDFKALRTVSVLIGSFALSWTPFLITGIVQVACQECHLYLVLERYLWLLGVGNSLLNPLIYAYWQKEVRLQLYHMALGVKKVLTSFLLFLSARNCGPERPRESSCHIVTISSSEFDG
Put plainly: In vitro cyclic AMP assay (Cisbio HTRF) in CHO-hGPR119 cells. The format is cell-based. To be noted: 1 h, cAMP, 1 μM, 60 min, read-out: Induction (% induction at 1 μM). The protocol:
cAMP measurements were done using Cisbio dynamic 2 HTRF kit according to the manufacturer's protocol. Briefly, CHO-hGPR119 cells were plated at a cell density of 5000 cells/well/5 μl into a white small volume 384 well plate. The final concentrations of IBMX and DMSO used were 1 mM and 0.5% respectively. Cells were treated with various concentrations of the test compound for 60 min at room temperature. Cells were lysed by buffer containing Anti-cAMP antibody and d2-cAMP reagents and incubated for 1 hour at room temperature. HTRF was measured at 337 nm excitation and emission wavelengths of 665 nm and 620 nm on a microplate reader (Flurostar, BMG Labtech). Graphpad prism software was utilized for EC50 determinations.
Turning to `CCc1cnc(N2CCC([C@@H](C)Oc3nn4cc(-c5ccc(S(C)(=O)=O)cc5)nc4s3)CC2)nc1` [Compound 1062, (R)-2-(1-(1-(5-ethylpyrimidin-2-yl)piperidin-4-yl)ethoxy)-6-(4-(methylsulfonyl)phenyl)imidazo[2,1-b][1,3,4]thiadiazole], the activation at 1 µM stood at 78%.

On to `CC(C)c1noc(C2CCN(c3nn4cc(-c5ccc(S(C)(=O)=O)cc5)nc4s3)CC2)n1` [Compound 1016, 3-isopropyl-5-(1-(6-(4-(methylsulfonyl)phenyl)imidazo[2,1-b][1,3,4]thiadiazol-2-yl)piperidin-4-yl)-1,2,4-oxadiazole], for which the activation at 1 µM came out at 54%.

As to `CC(C)c1noc(N2CCC(C(C)Oc3nc(-c4ccc(S(C)(=O)=O)cc4)ns3)CC2)n1` (stereo not shown) [Compound 1115, 4-(1-(3-(4-(methylsulfonyl)phenyl)-1,2,4-thiadiazol-5-yloxy)ethyl)-1-(3-isopropyl-1,2,4-oxadiazol-5-yl)piperidine], the activation at 1 µM was determined as 14%.

Turning to `CC(Oc1nn2cc(-c3ccc(S(C)(=O)=O)cc3F)nc2s1)C1CCN(C(=O)OC2(C)CC2)CC1` (stereo not shown) [Compound 1110, 1-methylcyclopropyl 4-(1-(6-(2-fluoro-4-(methylsulfonyl)phenyl)imidazo[2,1-b][1,3,4]thiadiazol-2-yloxy)ethyl)piperidine-1-carboxylate], the activation at 1 µM is 71%.

Regarding `COCCNC(=O)c1ccc(-c2cn3nc(N4CCC(c5nc(C(C)C)no5)CC4)sc3n2)cc1` [Compound 1039, 4-(2-(4-(3-isopropyl-1,2,4-oxadiazol-5-yl)piperidin-1-yl)imidazo[2,1-b][1,3,4]thiadiazol-6-yl)-N-(2-methoxyethyl)benzamide], the activation at 1 µM turned out to be 11%.

As for `CC(C)c1noc(N2CCC(c3cn4nc(-c5ccc(S(C)(=O)=O)cc5)sc4n3)CC2)n1` [Compound 1032, 3-isopropyl-5-(4-(2-(4-(methylsulfonyl)phenyl)imidazo[2,1-b][1,3,4]thiadiazol-6-yl)piperidin-1-yl)-1,2,4-oxadiazole], the activation at 1 µM was determined as 41%.

Regarding `COc1cc(S(C)(=O)=O)ccc1-c1cn2nc(O[C@@H](C)C3CCN(c4nc(C(C)C)no4)CC3)sc2n1` [Compound 1103, 2-((S)-1-(1-(3-isopropyl-1,2,4-oxadiazol-5-yl)piperidin-4-yl)ethoxy)-6-(2-methoxy-4-(methylsulfonyl)phenyl)imidazo[2,1-b][1,3,4]thiadiazole], the activation at 1 µM was found to be 9%.

Take `CS(=O)(=O)c1ccc(-c2cn3nc(C4CCN(S(C)(=O)=O)CC4)sc3n2)cc1` [Compound 1031, 6-(4-(methylsulfonyl)phenyl)-2-(1-(methylsulfonyl)piperidin-4-yl)imidazo[2,1-b][1,3,4]thiadiazole]: the activation at 1 µM was found to be 1%.

As to `Cc1cc(S(C)(=O)=O)ccc1-c1cn2nc(O[C@@H](C)C3CCN(c4nc(C(C)C)no4)CC3)sc2n1` [Compound 1112, 2-((S)-1-(1-(3-isopropyl-1,2,4-oxadiazol-5-yl)piperidin-4-yl)ethoxy)-6-(2-methyl-4-(methylsulfonyl)phenyl)imidazo[2,1-b][1,3,4]thiadiazole], the activation at 1 µM is 71%.

On to `CC(C)c1noc(N2CCC(Oc3nsc(-c4ccc(S(C)(=O)=O)nc4)n3)CC2)n1` [Compound 1119, 5-(3-(1-(3-isopropyl-1,2,4-oxadiazol-5-yl)piperidin-4-yloxy)-1,2,4-thiadiazol-5-yl)-2-(methylsulfonyl)pyridine], for which the activation at 1 µM is 7%.

For `CC(C)OC(=O)N1CCC(c2cn3nc(-c4ccc(S(C)(=O)=O)cc4)sc3n2)CC1` [Compound 1030, isopropyl 4-(2-(4-(methylsulfonyl)phenyl)imidazo[2,1-b][1,3,4]thiadiazol-6-yl)piperidine-1-carboxylate], the activation at 1 µM was 26%.

As for `CC(C)c1noc(C2CCN(c3nc(-c4ccc(S(C)(=O)=O)cc4)ns3)CC2)n1` [Compound 1114, 4-(3-isopropyl-1,2,4-oxadiazol-5-yl)-1-(3-(4-(methylsulfonyl)phenyl)-1,2,4-thiadiazol-5-yl)piperidine], the activation at 1 µM is 4%.

As to `C[C@H](Oc1nn2cc(-c3ccc(S(C)(=O)=O)cc3F)nc2s1)C1CCN(c2ncc(C(F)(F)F)cn2)CC1` [Compound 1098, 2-((S)-1-(1-(5-(trifluoromethyl)pyrimidin-2-yl)piperidin-4-yl)ethoxy)-6-(2-fluoro-4-(methylsulfonyl)phenyl)imidazo[2,1-b][1,3,4]thiadiazole], the activation at 1 µM was 68%.

Turning to `CC(C)OC(=O)N1CCN(c2nsnc2Oc2ccc(-n3cnnn3)cc2)CC1` [Compound 1010, isopropyl 4-(4-(4-(1H-tetrazol-1-yl)phenoxy)-1,2,5-thiadiazol-3-yl)piperazine-1-carboxylate], the activation at 1 µM amounted to 2%.

As for `CC(C)c1noc(C2CCN(c3nn4cc(-c5ccc(C(=O)N(C)C)cc5)nc4s3)CC2)n1` [Compound 1036, 4-(2-(4-(3-isopropyl-1,2,4-oxadiazol-5-yl)piperidin-1-yl)imidazo[2,1-b][1,3,4]thiadiazol-6-yl)-N,N-dimethylbenzamide], the activation at 1 µM amounted to 24%.

Consider `CC(C)c1noc(N2CCC(N(C)c3nc(-c4ccc(S(C)(=O)=O)nc4)ns3)CC2)n1` [Compound 1127, 1-(3-isopropyl-1,2,4-oxadiazol-5-yl)-N-methyl-N-(3-(6-(methylsulfonyl)pyridin-3-yl)-1,2,4-thiadiazol-5-yl)piperidin-4-amine], for which the activation at 1 µM was 4%.

With `CCCc1cnc(N2CCC([C@H](C)Oc3nn4cc(-c5ccncc5F)nc4s3)CC2)nc1` [Compound 1082, 2-((S)-1-(1-(5-propylpyrimidin-2-yl)piperidin-4-yl)ethoxy)-6-(3-fluoropyridin-4-yl)imidazo[2,1-b][1,3,4]thiadiazole], the activation at 1 µM stood at 80%.

In the case of `CCc1cnc(N2CCC(Nc3nn4cc(-c5ccc(S(C)(=O)=O)cc5)nc4s3)CC2)nc1` [Compound 1023, N-(1-(5-ethylpyrimidin-2-yl)piperidin-4-yl)-6-(4-(methylsulfonyl)phenyl)imidazo[2,1-b][1,3,4]thiadiazol-2-amine], the activation at 1 µM is 0%.

In the case of `CC(C)c1noc(C2CCN(c3nsnc3C(=O)Nc3ccc(S(C)(=O)=O)cc3F)CC2)n1` [Compound 1012, N-(2-fluoro-4-(methylsulfonyl)phenyl)-4-(4-(3-isopropyl-1,2,4-oxadiazol-5-yl)piperidin-1-yl)-1,2,5-thiadiazole-3-carboxamide], the activation at 1 µM was found to be 22%.

As to `COCCNC(=O)c1ccc(-c2nn3cc(C4CCN(C(=O)OC(C)C)CC4)nc3s2)cc1` [Compound 1035, isopropyl 4-(2-(4-((2-methoxyethyl)carbamoyl)phenyl)imidazo[2,1-b][1,3,4]thiadiazol-6-yl)piperidine-1-carboxylate], the activation at 1 µM was determined as 21%.

For the compound `CC(C)c1noc(N2CCC(Oc3nn4cc(COc5ccc(S(C)(=O)=O)cc5)nc4s3)CC2)n1` [Compound 1042, 3-isopropyl-5-(4-((6-((4-(methylsulfonyl)phenoxy)methyl)imidazo[2,1-b][1,3,4]thiadiazol-2-yl)oxy)piperidin-1-yl)-1,2,4-oxadiazole], the activation at 1 µM amounted to 2%.

In the case of `CCc1cnc(N2CCC([C@H](C)Oc3nn4cc(-c5ccnc(OC)c5)nc4s3)CC2)nc1` [Compound 1093, 2-((S)-1-(1-(5-ethylpyrimidin-2-yl)piperidin-4-yl)ethoxy)-6-(2-methoxypyridin-4-yl)imidazo[2,1-b][1,3,4]thiadiazole], the activation at 1 µM came to 75%.

With `CC(C)OC(=O)N1CCC(N(C)c2nn3cc(-c4ccc(S(C)(=O)=O)cc4)nc3s2)CC1` [Compound 1022, isopropyl 4-(methyl(6-(4-(methylsulfonyl)phenyl)imidazo[2,1-b][1,3,4]thiadiazol-2-yl)amino)piperidine-1-carboxylate], the activation at 1 µM was found to be 16%.

Regarding `CC(C)c1noc(N2CCC(C(C)Oc3nn4cc(-c5ccc(S(C)(=O)=O)cc5)nc4s3)CC2)n1` (stereo not shown) [Compound 1057, 3-isopropyl-5-(4-(1-((6-(4-(methylsulfonyl)phenyl)imidazo[2,1-b][1,3,4]thiadiazol-2-yl)oxy)ethyl)piperidin-1-yl)-1,2,4-oxadiazole], the activation at 1 µM turned out to be 82%.

Regarding `CC(C)c1noc(N2CCC(Oc3nn4cc(-c5ccc(S(C)(=O)=O)cc5)nc4s3)CC2)n1` [Compound 1018, 3-isopropyl-5-(4-((6-(4-(methylsulfonyl)phenyl)imidazo[2,1-b][1,3,4]thiadiazol-2-yl)oxy)piperidin-1-yl)-1,2,4-oxadiazole], the activation at 1 µM is 20%.

As to `C[C@H](Oc1nn2cc(-c3ccc(S(C)(=O)=O)cc3)nc2s1)C1CCN(c2ncc(Cl)cn2)CC1` [Compound 1083, 2-((S)-1-(1-(5-chloropyrimidin-2-yl)piperidin-4-yl)ethoxy)-6-(4-(methylsulfonyl)phenyl)imidazo[2,1-b][1,3,4]thiadiazole], the activation at 1 µM was 77%.

For `CC(C)c1noc(N2CCC(COc3nn4cc(-c5ccc(S(C)(=O)=O)cc5)nc4s3)CC2)n1` [Compound 1017, 3-isopropyl-5-(4-(((6-(4-(methylsulfonyl)phenyl)imidazo[2,1-b][1,3,4]thiadiazol-2-yl)oxy)methyl)piperidin-1-yl)-1,2,4-oxadiazole], the activation at 1 µM amounted to 39%.

Still in this assay, the particulars now being: cAMP, class symbols, legend not given.
`CCc1cnc(N2CCC([C@@H](C)Oc3nn4cc(-c5ccc(S(C)(=O)=O)cc5)nc4s3)CC2)nc1` [Compound 1062, (R)-2-(1-(1-(5-ethylpyrimidin-2-yl)piperidin-4-yl)ethoxy)-6-(4-(methylsulfonyl)phenyl)imidazo[2,1-b][1,3,4]thiadiazole]: the EC50 entry is “A+”.
